Source: patent publication US7879848B2, “Dipeptidyl Peptidase-IV inhibiting compounds, method of preparing the same, and pharmaceutical compositions containing the same as an active agent” (LG Life Sciences, Ltd., priority 2005, dated 2011)
pIC50: −log10 of the molar value.

What follows are molecules tested against T1, Dipeptidyl Peptidase-IV (DPP-IV) (Homo sapiens, UniProt P27487) (assay: Measurement of DPP-IV Activity-Inhibiting Ability (fluorescent substrate Ac-Gly-Pro-AFC)). Conditions: 25° C., 50 mmol HEPES (pH 7.4), DP-IV 7.1 nM, enzyme reaction for 1 hour.
T1 construct: made in house
Type: biochemical
Method in brief: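 Fluorescence (ex 400 nm, em 505 nm) from cleavage of Ac-Gly-Pro-AFC ([…]) tracked activity at various inhibitor concentrations. Reactions used 7.1 nM recombinant enzyme, expressed in baculovirus and purified on nickel, in 50 mmol HEPES pH 7.4 at 25 °C.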

T1 sequence (P27487 whole entry): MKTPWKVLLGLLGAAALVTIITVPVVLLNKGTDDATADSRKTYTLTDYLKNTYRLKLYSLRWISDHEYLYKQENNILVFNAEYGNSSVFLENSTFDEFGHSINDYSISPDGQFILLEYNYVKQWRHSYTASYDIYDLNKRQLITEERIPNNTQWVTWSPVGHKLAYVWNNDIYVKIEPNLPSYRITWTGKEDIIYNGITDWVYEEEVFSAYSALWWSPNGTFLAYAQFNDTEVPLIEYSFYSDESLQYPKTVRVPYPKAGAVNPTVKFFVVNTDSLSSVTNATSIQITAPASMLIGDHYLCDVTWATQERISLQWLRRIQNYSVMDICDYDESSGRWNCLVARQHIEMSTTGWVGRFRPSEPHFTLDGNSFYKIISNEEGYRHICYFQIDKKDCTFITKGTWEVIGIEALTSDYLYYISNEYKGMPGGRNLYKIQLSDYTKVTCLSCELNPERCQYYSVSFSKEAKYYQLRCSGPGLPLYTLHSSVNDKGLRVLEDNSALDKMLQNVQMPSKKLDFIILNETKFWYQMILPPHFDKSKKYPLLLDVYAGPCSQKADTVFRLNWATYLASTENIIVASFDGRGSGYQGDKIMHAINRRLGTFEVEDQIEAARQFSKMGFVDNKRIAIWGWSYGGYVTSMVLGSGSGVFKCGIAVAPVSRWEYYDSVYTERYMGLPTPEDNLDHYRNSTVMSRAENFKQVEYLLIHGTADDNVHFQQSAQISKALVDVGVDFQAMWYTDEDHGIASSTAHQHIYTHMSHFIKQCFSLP

SMILES	pIC50
C[C@@H]1CCC(=O)N(C[C@@H](N)CC(=O)N2CCc3c(nc(Cc4ccc(F)cc4)nc3C(F)(F)F)C2)C1 [Ex. 58, (5R)-1-{(2S)-2-amino-4-[2-(4-fluorobenzyl)-4-(trifluoromethyl)-5,8-dihydropyrido[3,4-d]pyrimidin-7(6H)-yl]-4-oxobutyl}-5-methylpiperidin-2-one]	7.85
C[C@H]1CN(C[C@@H](N)CC(=O)N2CCc3sc(C(F)(F)F)nc3C2)C(=O)CO1 [Ex. 50, (6S)-4-{(2S)-2-amino-4-oxo-4-[2-(trifluoromethyl)-6,7-dihydro[1,3]thiazolo[4,5,c]pyridin-5(4H)-yl]butyl}-6-methylmorpholine-3-one]	6.37
C[C@@H]1CCC(=O)N(C[C@@H](N)CC(=O)N2CCc3c(nc(CC4CC4)nc3C(F)(F)F)C2)C1 [Ex. 54, (5R)-1-{(2S)-2-amino-4-[2-(cyclopropylmethyl)-4-(trifluoromethyl)-5,8-dihydropyrido[3,4-d]pyrimidin-7(6H)-yl]-4-oxobutyl}-5-methylpiperidin-2-one]	7.52
CC(C)c1nc2c(c(C(F)(F)F)n1)CCN(C(=O)C[C@H](N)CN1C[C@H](C)OCC1=O)C2 [Ex. 76, (6S)-4-{(2S)-2-amino-4-[2-isopropyl-4-(trifluoromethyl)-5,8-dihydropyrido[3,4-d]pyrimidin-7(6H)-yl]-4-oxobutyl}-6-methylmorpholine-3-one]	7.52
C[C@@H]1CCC(=O)N(C[C@@H](N)CC(=O)N2CCc3c(nc(-c4ccccc4)nc3C(F)(F)F)C2)C1 [Ex. 22, (5R)-1-{(2S)-2-amino-4-oxo-4-[2-phenyl-4-(trifluoromethyl)-5,8-dihydropyrido[3,4-d]pyrimidin-7(6H)-yl]butyl}-5-methylpiperidin-2-one]	7.31
N[C@@H](CC(=O)N1CCc2c(noc2C(F)(F)F)C1)CN1CCCCC1=O [Ex. 19, 1-[2S-amino-4-oxo-4-(3-trifluoromethyl-4,5-dihydro-7H-isooxazolo[3,4-c]pyridin-6-yl)butyl]-piperidin-2-one]	6.15
C[C@H]1CN(C[C@@H](N)CC(=O)N2CCc3c(nc(C4CCCC4)nc3C(F)(F)F)C2)C(=O)CO1 [Ex. 39]	7.29
N[C@@H](CC(=O)N1CCc2ccccc2C1)CN1CCCCC1=O [Ex. 17, 1-[2S-amino-4-(3,4-dihydro-1H-isoquinolin-2-yl)-4-oxo-butyl]-piperidin-2-one]	5.70
CC1CN(C[C@@H](N)CC(=O)N2CCn3c(nnc3C(F)(F)F)C2)C(=O)CO1 (stereo partly drawn) [Ex. 16, 4-[2S-amino-4-oxo-4-(3-trifluoromethyl-5,6-dihydro-8H-[1,2,4]triazolo[4,3-a]pyrazin-7-yl)-butyl]-6-methyl-morpholin-3-one]	7.18
C[C@@H]1CCC(=O)N(C[C@@H](N)CC(=O)N2CCc3c(ncnc3C(F)(F)F)C2)C1 [Ex. 21]	7.62
N[C@@H](CC(=O)N1CCc2c(nc(-c3cccs3)nc2C(F)(F)F)C1)CN1CC(F)(F)CCC1=O [Ex. 63, 1-{(2S)-2-amino-4-oxo-4-[2-(2-thienyl)-4-(trifluoromethyl)-5,8-dihydropyrido[3,4-d]pyrimidin-7(6H)-yl]butyl}-5,5-difluoropiperidin-2-one]	7.46
C[C@H]1CN(C[C@@H](N)CC(=O)N2CCc3c(nc(-c4ccccc4)nc3C(F)(F)F)C2)C(=O)CO1 [Ex. 23]	6.89
N[C@@H](CC(=O)N1CCc2c(nc(Cc3ccc(F)cc3)nc2C(F)(F)F)C1)CN1CC(F)(F)CCC1=O [Ex. 59, 1-{(2S)-2-amino-4-[2-(4-fluorobenzyl)-4-(trifluoromethyl)-5,8-dihydropyrido[3,4-d]pyrimidin-7(6H)-yl]-4-oxobutyl}-5,5-difluoropiperidin-2-one]	7.44
C[C@H]1CN(C[C@@H](N)CC(=O)N2CCc3c(nc(C4CC4)nc3C(F)(F)F)C2)C(=O)CO1 [Ex. 27, (6S)-4-{(2S)-2-amino-4-[2-cyclopropyl-4-(trifluoromethyl)-5,8-dihydropyrido[3,4-d]pyrimidin-7(6H)-yl]-4-oxobutyl}-6-methylmorpholine-3-one]	7.55
N[C@@H](CC(=O)N1CCc2c(nc(-c3ccsc3)nc2C(F)(F)F)C1)CN1CC(F)(F)CCC1=O [Ex. 61, 1-{(2S)-2-amino-4-oxo-4-[2-(3-thienyl)-4-(trifluoromethyl)-5,8-dihydropyrido[3,4-d]pyrimidin-7(6H)-yl]butyl}-5,5-difluoropiperidin-2-one]	7.26
C[C@H]1CN(C[C@@H](N)CC(=O)N2CCn3c(nnc3C(F)(F)F)C2)C(=O)CO1 [Ex. 78, (6S)-4-{(2S)-2-amino-4-oxo-4-[3-(trifluoromethyl)-5,6-dihydro[1,2,4]triazolo[4,3-a]pyrazin-7(8H)-yl]butyl}-6-methylmorpholine-3-one]	6.79

Other lines, results leading:

pIC50	SMILES
7.25	CC1CCN(C[C@@H](N)CC(=O)N2CCc3c(nc(C(F)(F)F)nc3C(F)(F)F)C2)C(=O)C1 (stereo partly drawn) [Ex. 110, 1-{(2S)-2-amino-4-[2,4-bis(trifluoromethyl)-5,8-dihydropyrido[3,4-d]pyrimidin-7(6H)-yl]-4-oxobutyl}-4-methyloxopiperidin-2-one]
7.35	CC1CC(=O)N(C[C@@H](N)CC(=O)N2CCc3c(nc(-c4ccoc4)nc3C(F)(F)F)C2)C1 (stereo partly drawn) [Ex. 106, 1-{(2S)-2-amino-4-[2-(3-furyl)-4-(trifluoromethyl)-5,8-dihydropyrido[3,4-d]pyrimidin-7(6H)-yl]-4-oxobutyl}-4-methylpyrrolidin-2-one]
7.80	C[C@@H]1CCC(=O)N(C[C@@H](N)CC(=O)N2CCc3c(nc(C(F)(F)F)nc3C(F)(F)F)C2)C1 [Ex. 82, (5R)-1-{(2S)-2-amino-4-[2,4-bis(trifluoromethyl)-5,8-dihydropyrido[3,4-d]pyrimidin-7(6H)-yl]-4-oxobutyl}-5-methylpiperidin-2-one]
7.07	CC1CN(C[C@@H](N)CC(=O)N2CCc3c(nc(C(F)(F)F)nc3C(F)(F)F)C2)C(=O)CS1 (stereo partly drawn) [Ex. 91, 4-{(2S)-2-amino-4-[2,4-bis(trifluoromethyl)-5,8-dihydropyrido[3,4-d]pyrimidin-7(6H)-yl]-4-oxobutyl}-6-methylthiomorpholin-3-one]
7.52	Cc1nc2c(c(C(F)(F)F)n1)CCN(C(=O)C[C@H](N)CN1C[C@H](C)OCC1=O)C2 [Ex. 86]
6.20	N[C@@H](CC(=O)N1CCc2c(nc(C(F)(F)F)nc2C(F)(F)F)C1)CN1CC(C(F)(F)F)CCC1=O (stereo partly drawn) [Ex. 107, 1-{(2S)-2-amino-4-[2,4-bis(trifluoromethyl)-5,8-dihydropyrido[3,4-d]pyrimidin-7(6H)-yl]-4-oxobutyl}-5-(trifluoromethyl)piperidin-2-one]
7.74	CCCc1nc2c(c(C(F)(F)F)n1)CCN(C(=O)C[C@H](N)CN1CC(F)(F)CCC1=O)C2 [Ex. 100, 1-{(2S)-2-amino-4-oxo-4-[2-propyl-4-(trifluoromethyl)-5,8-dihydropyrido[3,4-d]pyrimidin-7(6H)-yl]butyl}-5,5-difluoropiperidin-2-one]
7.26	C[C@H]1CN(C[C@@H](N)CC(=O)N2CCc3c(nc(C(C)(C)C)nc3C(F)(F)F)C2)C(=O)CO1 [Ex. 93]
7.54	N[C@@H](CC(=O)N1CCc2c(nc(CF)nc2C(F)(F)F)C1)CN1CC(F)(F)CCC1=O [Ex. 102, 1-{(2S)-2-amino-4-[2-(fluoromethyl)-4-(trifluoromethyl)-5,8-dihydropyrido[3,4-d]pyrimidin-7(6H)-yl]-4-oxobutyl}-5,5-difluoropiperidin-2-one]
